Data reported in ChEMBL document CHEMBL5625204, “Synthesis and pharmacodynamic evaluation of naphthalene derivatives against influenza A virus in vitro and in vivo” (Eur J Med Chem, 2023).
The source made the active and inactive calls. The calls are words filed in the database; no cut-off is given here.

Columns and labels:
Influenza A virus [1] = assay: Antiviral activity against Influenza A virus H1N1 (A/Weiss/43)-infected in BALB/c mouse assessed as reduction in lung index at 25 mg/kg/day administered intranasally for 6 days starting from 3 hrs post-viral infection; type: functional; conditions: 144 h, route nas, time 6 day
[2] = Selectivity index, ratio of CC50 for dog MDCK cells to EC50 for antiviral activity against Influenza A virus H1N1 (A/Weiss/43) infected in MDCK cells treated for 2 hrs before viral infection and measured after 72 hrs; type: toxicity, cell-based; conditions: read-out: Ratio CC50/EC50
[3] = Cytotoxicity against dog MDCK cells assessed as reduction in cell viability incubated for 72 hrs by MTT assay; type: toxicity, cell-based, Canis lupus familiaris
[4] = Selectivity index, ratio of CC50 for dog MDCK cells to EC50 for antiviral activity against Influenza A virus H1N1 (A/Weiss/43) infected in MDCK cells treated for 72 hrs after viral adsorption; type: toxicity, cell-based; conditions: read-out: Ratio CC50/EC50
Influenza A virus [5] = assay: Antiviral activity against Influenza A virus H1N1 (A/Weiss/43) infected in MDCK cells assessed as reduction in cell pathological changes at 25 to 50 uM by microscopic analysis; type: functional, organism-based; conditions: dose 25-50 µM
Influenza A virus [6] = assay: Antiviral activity against Influenza A virus H1N1 (A/Weiss/43)-infected in BALB/c mouse assessed as reduction in pulmonary inflammation at 25 to 100 mg/kg/day administered intranasally for 6 days starting from 3 hrs post-viral infection by Hematoxylin-Eosin staining based analysis; type: functional, organism-based; conditions: dose 25-100 mg/kg/day, route nas, time 6.0 day
Influenza A virus [7] = assay: Antiviral activity against Influenza A virus H1N1 (A/Weiss/43)-infected in BALB/c mouse assessed as reduction in lung index at 50 mg/kg/day administered intranasally for 6 days starting from 3 hrs post-viral infection; type: functional; conditions: 144 h, route nas, time 6 day
[8] = Selectivity index, ratio of CC50 for dog MDCK cells to EC50 for antiviral activity against Influenza A virus H3N2 (A/California/2004) infected in MDCK cells; type: toxicity, cell-based; conditions: read-out: Ratio CC50/EC50
Influenza A virus [9] = assay: Antiviral activity against Influenza A virus H1N1 (A/Weiss/43)-infected in dog MDCK cells assessed as reduction in oxidative stress by measuring proportion of cells with excessive ROS accumulation at 25 uM treated at 2 hrs post-infection and measured after 36 hrs by DCFH-DA staining based flow cytometry (reference value: 30.6%); type: functional; parameters: scale not given: the % may be the effect or the level left
Influenza A virus [10] = assay: Antiviral activity against Influenza A virus H1N1 (A/Weiss/43)-infected in dog MDCK cells assessed as reduction in oxidative stress by measuring proportion of normal cells at 50 uM treated at 2 hrs post-infection and measured after 36 hrs by DCFH-DA staining based flow cytometry (reference value: 69.4%); type: functional; parameters: scale not given: the % may be the effect or the level left
[11] = Toxicity in dog MDCK cells assessed as ROS production by measuring proportion of normal cells at 50 uM measured after 36 hrs by DCFH-DA staining based flow cytometry (reference value: 99.9%); type: cell-based, Canis lupus familiaris
[12] = Toxicity in dog MDCK cells assessed as ROS production by measuring proportion of cells with excessive ROS accumulation at 50 uM measured after 36 hrs by DCFH-DA staining based flow cytometry (reference value: 0.094%); type: cell-based, Canis lupus familiaris
Influenza A virus [13] = assay: Antiviral activity against Influenza A virus H1N1 infected in dog MDCK cells assessed as decrease in apoptosis by measuring proportion of late apoptotic cells at 25 uM measured after 72 hrs by AnnexinV-FITC/PI staining based flow cytometry (reference value: 10.3%); type: functional; parameters: scale not given: the % may be the effect or the level left
Influenza A virus [14] = assay: Antiviral activity against Influenza A virus H1N1 infected in dog MDCK cells assessed as decrease in apoptosis by measuring proportion of necrotic cells at 25 uM measured after 72 hrs by AnnexinV-FITC/PI staining based flow cytometry (reference value: 2.47%); type: functional; parameters: scale not given: the % may be the effect or the level left
Influenza A virus [15] = assay: Antiviral activity against Influenza A virus H1N1 infected in dog MDCK cells assessed as decrease in apoptosis by measuring proportion of early apoptotic cells at 50 uM measured after 72 hrs by AnnexinV-FITC/PI staining based flow cytometry (reference value: 24.3%); type: functional; parameters: scale not given: the % may be the effect or the level left
Influenza A virus [16] = assay: Antiviral activity against Influenza A virus H1N1 infected in dog MDCK cells assessed as decrease in apoptosis by measuring proportion of late apoptotic cells at 50 uM measured after 72 hrs by AnnexinV-FITC/PI staining based flow cytometry (reference value: 10.3%); type: functional; parameters: scale not given: the % may be the effect or the level left
Influenza A virus [17] = assay: Antiviral activity against Influenza A virus H1N1 infected in dog MDCK cells assessed as decrease in apoptosis by measuring proportion of necrotic cells at 50 uM measured after 72 hrs by AnnexinV-FITC/PI staining based flow cytometry (reference value: 2.47%); type: functional; parameters: scale not given: the % may be the effect or the level left
[18] = Toxicity in dog MDCK cells assessed as proportion of viable cells at 50 uM measured after 72 hrs by AnnexinV-FITC/PI staining based flow cytometry (reference value: 90.6%); type: cell-based, Canis lupus familiaris; conditions: read-out: Activity
Influenza A virus [19] = assay: Antiviral activity against Influenza A virus H1N1 infected in human A549 cells assessed as decrease in apoptosis by measuring decrease in cleaved caspase-7 protein expression at 25 to 50 uM measured after 24 hrs by western blot analysis; type: functional, organism-based; conditions: dose 25-50 µM
Influenza A virus [20] = assay: Antiviral activity against Influenza A virus H1N1 infected in human A549 cells assessed as decrease in RIG-1 pathway related protein expression by measuring decrease in RIG-1 protein expression at 25 to 50 uM measured after 24 hrs by western blot analysis; type: functional, organism-based; conditions: dose 25-50 µM
Influenza A virus [21] = assay: Antiviral activity against Influenza A virus H1N1 infected in human A549 cells assessed as decrease in RIG-1 pathway related gene expression by measuring decrease in MAVS gene expression at 25 to 50 uM measured after 24 hrs by qRT-PCR analysis; type: functional, organism-based; conditions: dose 25-50 µM
Influenza A virus [22] = assay: Antiviral activity against Influenza A virus H1N1 infected in human A549 cells assessed as decrease in RIG-1 pathway related gene expression by measuring decrease in IRF3 gene expression at 25 to 50 uM measured after 24 hrs by qRT-PCR analysis; type: functional, organism-based; conditions: dose 25-50 µM
Influenza A virus [23] = assay: Antiviral activity against Influenza A virus H1N1 infected in human A549 cells assessed as decrease in cytokine gene expression by measuring decrease in IL-6 gene expression at 25 to 50 uM measured after 24 hrs by qRT-PCR analysis; type: functional, organism-based; conditions: dose 25-50 µM
Influenza A virus [24] = assay: Antiviral activity against Influenza A virus H1N1 infected in human A549 cells assessed as decrease in cytokine gene expression by measuring decrease in TNF-alpha gene expression at 25 to 50 uM measured after 24 hrs by qRT-PCR analysis; type: functional, organism-based; conditions: dose 25-50 µM
Influenza A virus [25] = assay: Antiviral activity against Influenza A virus H1N1 (A/Weiss/43)-infected in BALB/c mouse assessed as reduction in MyD88 gene expression in lungs at 25 to 100 mg/kg/day administered intranasally for 6 days starting from 3 hrs post-viral infection by qRT-PCR analysis; type: functional, organism-based; conditions: dose 25-100 mg/kg/day, route nas, time 6.0 day
Influenza A virus [26] = assay: Antiviral activity against Influenza A virus H1N1 (A/Weiss/43)-infected in BALB/c mouse assessed as reduction in OAS1 gene expression in lungs at 25 to 100 mg/kg/day administered intranasally for 6 days starting from 3 hrs post-viral infection by qRT-PCR analysis; type: functional, organism-based; conditions: dose 25-100 mg/kg/day, route nas, time 6.0 day
Influenza A virus [27] = assay: Antiviral activity against Influenza A virus H1N1 (A/Weiss/43)-infected in BALB/c mouse assessed as reduction in TNF-alpha gene expression in lungs at 25 to 100 mg/kg/day administered intranasally for 6 days starting from 3 hrs post-viral infection by qRT-PCR analysis; type: functional, organism-based; conditions: dose 25-100 mg/kg/day, route nas, time 6.0 day

O=[N+]([O-])c1ccc(S(=O)(=O)N(Cc2ccccc2)c2cccc3ccccc23)cc1
inhibition in vivo at 25 mg/kg/day (Influenza A virus [1]): 20.6% | selectivity ratio at 72 h [2]: > 105 | CC50 at 72 h [3]: > 800 µM | selectivity ratio at 72 h [4]: > 351 | Activity (Influenza A virus [5]): Active | Activity (Influenza A virus [6]): Dose-Dependent Effect | inhibition in vivo at 50 mg/kg/day (Influenza A virus [7]): 28.8% | selectivity ratio [8]: > 121 | Activity (Influenza A virus [9]): 12.3% | Activity (Influenza A virus [10]): 95.3% | Activity [11]: 98.6% | Activity [12]: 1.36% | Activity (Influenza A virus [13]): 1.21% | Activity (Influenza A virus [14]): 0.81% | Activity (Influenza A virus [15]): 2.93% | Activity (Influenza A virus [16]): 1.09% | Activity (Influenza A virus [17]): 0.6% | viability at 72 h, 50 µM [18]: 96.9% | inhibition (Influenza A virus [19]): Active | inhibition (Influenza A virus [20]): Active | inhibition (Influenza A virus [21]): Active | inhibition (Influenza A virus [22]): Active | inhibition (Influenza A virus [23]): Active | inhibition (Influenza A virus [24]): Active | Activity (Influenza A virus [25]): Active | Activity (Influenza A virus [26]): Active | Activity (Influenza A virus [27]): Active
